Structures can show the parent of a compound that is named as a salt.
Target: CCR8 (Homo sapiens, UniProt P51685)
Assay: Tango assay (Tango-CCR8-Gal4-CHO-K1 cells, CCL1-stimulated, ONE-Glo luminescence)
Conditions: Tango Assay IC50, Inhibition of CCR8 Tango cell in vitro

Chain of CCR8 (P51685 whole entry, the tested form may be a part): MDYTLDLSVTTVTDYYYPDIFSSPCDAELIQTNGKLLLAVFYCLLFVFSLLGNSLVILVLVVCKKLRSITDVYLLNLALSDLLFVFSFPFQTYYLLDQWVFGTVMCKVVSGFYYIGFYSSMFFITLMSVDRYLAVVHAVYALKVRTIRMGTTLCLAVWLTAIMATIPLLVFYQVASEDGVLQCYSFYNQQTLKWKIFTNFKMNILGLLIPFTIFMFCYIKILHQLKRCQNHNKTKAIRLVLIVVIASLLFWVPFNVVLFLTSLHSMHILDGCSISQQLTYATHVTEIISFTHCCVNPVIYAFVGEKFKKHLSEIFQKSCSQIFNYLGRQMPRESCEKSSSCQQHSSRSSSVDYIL

IC50 | SMILES
2300 nM | Cc1cc(S(=O)(=O)N[C@H](C)C2CCN(C)CC2)ccc1NC(c1ccccc1)C(F)(F)F (stereo partly drawn) [Compound 300, 3-methyl-N-((R)-1-(1-methylpiperidin-4-yl)ethyl)-4-((2,2,2-trifluoro-1-phenylethyl)amino)benzene-sulfonamide]
102 nM | Cc1cc(S(=O)(=O)N[C@H](C)C2CC[N+](C)(C)CC2)ccc1NC(=O)c1ccccc1C [Compound 301, (R)-1,1-dimethyl-4-(1-((3-methyl-4-(2-methylbenzamido)phenyl)sulfonamido)ethyl)piperidin-1-ium.chloride.]
> 100000 nM | Cc1ccccc1C(=O)Nc1c(C)cc(S(=O)(=O)N[C@H](C)C2CCNCC2)cc1F [Compound 302, (R)-N-(2-fluoro-6-methyl-4-(N-(1-(piperidin-4-yl)eth-yl)sulfamoyl)phen-yl)-2-methylbenzamide hydrochloride]
9 nM | Cc1ccccc1C(=O)Nc1cc(C)c(S(=O)(=O)N[C@H](C)C2CCN(C)CC2)cc1F [Compound 303, (R)-N-(2-fluoro-5-methyl-4-(N-(1-(1-methylpiperidin-4-yl)ethyl)sulfamoyl)phenyl)-2-methylbenzamide hydrochloride]
3 nM | Cc1ccccc1C(=O)Nc1c(F)cc(S(=O)(=O)N[C@H](C)C2CCNCC2)cc1Cl [Compound 304, (R)-N-(2-chloro-6-fluoro-4-(N-(1-(piperidin-4-yl)ethyl)sulfamoyl)phenyl)-2-methylbenzamide hydrochloride]
1.5 nM | Cc1ccccc1C(=O)Nc1c(Cl)cc(S(=O)(=O)N[C@H](C)C2CCNCC2)cc1Cl [Compound 305, (R)-N-(2,6-dichloro-4-(N-(1-(piperidin-4-yl)ethyl)sulfamoyl)phenyl)-2-methylbenzamide hydrochloride]
6 nM | Cc1ccccc1C(=O)Nc1cc(Cl)c(S(=O)(=O)N[C@H](C)C2CCN(C)CC2)cc1Cl [Compound 306, (R)-N-(2,5-dichloro-4-(N-(1-(1-methylpiperidin-4-yl)ethyl)sulfamoyl)phenyl)-2-methylbenzamide hydrochloride]
> 100000 nM | Cc1ccccc1C(=O)Nc1cc(Cl)c(S(=O)(=O)N[C@@H](C)C2CCN(C)CC2)cc1Cl [Compound 307, (S)-N-(2,5-dichloro-4-(N-(1-(1-methylpiperidin-4-yl)ethyl)sulfamoyl)phenyl)-2-methylbenzamide hydrochloride]
> 100000 nM | Cc1ccccc1C(=O)Nc1ccc(S(=O)(=O)N[C@H](C)C2CCN(C)CC2)c(C)c1Cl [Compound 308, (R)-N-(2-chloro-3-methyl-4-(N-(1-(1-methylpiperidin-4-yl)ethyl)sulfamoyl)phenyl)-2-methylbenzamide]
10 nM | Cc1cc(S(=O)(=O)N[C@H](C)C2CCNCC2)ccc1NC(=O)C12CCC(CC1)CC2 [Compound 309, hydrochloride]
5 nM | Cc1cc(S(=O)(=O)N[C@H](C)C2CCNCC2)ccc1NC(=O)c1cccc2c1CCC2 [Compound 310, (R)-N-(2-methyl-4-(N-(1-(piperidin-4-yl)ethyl)sulfamoyl)phenyl)-2,3-dihydro-1H-indene-4-carboxamide hydrochloride]
> 100000 nM | Cc1ccccc1C(=O)Nc1cc(F)c(S(=O)(=O)NC2CCNCC2)cc1Cl [Compound 311, N-(2-chloro-5-fluoro-4-(N-(piperidin-4-yl)sulfamoyl)phenyl)-2-methylbenzamide hydrochloride]
301 nM | CC(=O)N1CCC(NS(=O)(=O)c2cc(Cl)c(NC(=O)c3ccccc3C)cc2F)CC1 [Compound 312, N-(4-(N-(1-acetylpiperidin-4-yl)sulfamoyl)-2-chloro-5-fluorophenyl)-2-methylbenzamide]
224 nM | Cc1cc(S(=O)(=O)N[C@H](C)C2CCNCC2)ccc1NC1(c2ccccc2)COC1 [Compound 313, (R)-3-methyl-4-((3-phenyloxetan-3-yl)amino)-N-(1-(piperidin-4-yl)ethyl)benzene-sulfonamide]

SMILES | IC50
COc1cc(NC(=O)c2ccccc2C)c(C)cc1S(=O)(=O)N[C@H](C)C1CCNCC1 [Compound 314, (R)-N-(5-methoxy-2-methyl-4-(N-(1-(piperidin-4-yl)ethyl)sulfamoyl)phen-yl)-2-methylbenzamide hydrochloride] | 17 nM

From patent publication US12552753B2, “Methods and compositions for targeting Tregs using CCR8 inhibitors” (Nanjing Immunophage Biomedical Co., Ltd., priority 2020, dated 2026)
